Measured values as given in patent US10307427B2, “Apoptosis signal-regulating kinase inhibitors” (Gilead Sciences, Inc., priority 2012, dated 2019).

Tested on: CXCL1 in human whole blood
Assay: Human whole blood CXCL1 assay (Auranofin stimulation)
Assay type: cell-based
Details: 5 μM Auranofin, 24 hours, CXCL1 quantified, average of donors, read-out: WB EC50 nM (n = 4)
Method: Human Whole Blood CXCL1 Assay
Human blood collected in sodium heparin glass vacutainer tubes (BD Biosciences #366480) was obtained from Stanford Blood Center (Palo Alto, Ca). Red blood cell Ammonium-Chloride-Potassium (ACK) lysis buffer was obtained from Invitrogen (A10492-01) Phosphate buffered saline (PBS, 21-031-CV) and RPMI640 media (10-040-CV) were purchased from Cellgro. 50 ml conical tubes were from BD Biosciences (352070). Multiscreen Filter plates (MSBVS 1210) used along with vacuum manifold for 96-well plate (MAVM0960R) were purchased from EMD Millipore Inc. Transfer pipettes (13-711-20) and hemocytometer (0267110) were purchased from Thermo Fisher Scientific. An Allegra X15R from Beckmann Coulter was used for all the centrifugation steps in the isolation of PBMCs.
ASK1 inhibitors and Auranofin (Enzo Life Sciences Inc. BML-EI206-0100) were dissolved in dimethyl sulfoxide (DMSO, Sigma Aldrich cat#472301) at a concentration of 10 mM and 100 mM, respectively. […] CXCL1 protein was quantified with an ELISA assay from Millipore.
A 10 mM ASK1 inhibitor DMSO stock was diluted in saline to create a 100 μM (10×) working solution. […] 50 μl of the resulting supernatant from each well was transferred to a new 96 well assay plate and the amount of CXCL1 was quantified by a Procarta immunoassay following the manufacturer's instructions. […]

Structure (SMILES): O=C(Nc1csc(-c2nncn2C2CC2)n1)c1cc(-n2cnc(C3CC3)c2)c(N2CCOCC2)cn1 [Example 1, 4-(4-cyclopropyl-1H-imidazol-1-yl)-N-(2-(4-cyclopropyl-4H-1,2,4-triazol-3-yl)thiazol-4-yl)-5-morpholinopicolinamide]
- EC50: 243 nM

Structure (SMILES): C[C@H](n1cnnc1-c1nc(NC(=O)c2cc(-n3cnc(C4CC4)c3)c(N3CCOCC3)cn2)cs1)C(F)(F)F [Example 3, (S)-4-(4-cyclopropyl-1H-imidazol-1-yl)-5-morpholino-N-(2-(4-(1,1,1-trifluoropropan-2-yl)-4H-1,2,4-triazol-3-yl)thiazol-4-yl)picolinamide]
- EC50: 202 nM
